Measured values published in patent publication US20210255193A1, “LYSINE REACTIVE PROBES AND USES THEREOF” (The Scripps Research Institute, priority 2017, published 2021).

Columns and labels:
Assay in all cases: direct labeling of recombinantly expressed proteins by gel-based ABPP (WT vs lysine mutant)
Type in all cases: binding
[1] = molecular target: T1, ADK (Homo sapiens, UniProt P55263); details: ADK K88, KR mutant; 10 μM probe, 1 h
T1 construct: expressed in transfected cells; host or cells: HEK 293T
T1 sequence (P55263 whole entry): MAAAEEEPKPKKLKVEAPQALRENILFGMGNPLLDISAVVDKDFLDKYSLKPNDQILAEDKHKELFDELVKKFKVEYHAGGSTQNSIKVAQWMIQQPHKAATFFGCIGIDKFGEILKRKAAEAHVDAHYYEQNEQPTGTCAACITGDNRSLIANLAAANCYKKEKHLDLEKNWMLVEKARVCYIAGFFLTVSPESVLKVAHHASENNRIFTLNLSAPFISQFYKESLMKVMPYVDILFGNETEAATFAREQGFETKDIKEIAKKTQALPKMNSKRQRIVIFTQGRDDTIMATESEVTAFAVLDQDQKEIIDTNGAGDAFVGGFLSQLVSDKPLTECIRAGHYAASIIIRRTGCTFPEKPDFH

[2] = molecular target: T2, CARM1 (Mus musculus, UniProt Q9WVG6); details: CARM1 K241, KR mutant; 10 μM probe, 1 h
T2 construct: FLAG; expressed in transfected cells; host or cells: HEK 293T
T2 sequence (Q9WVG6 1-608): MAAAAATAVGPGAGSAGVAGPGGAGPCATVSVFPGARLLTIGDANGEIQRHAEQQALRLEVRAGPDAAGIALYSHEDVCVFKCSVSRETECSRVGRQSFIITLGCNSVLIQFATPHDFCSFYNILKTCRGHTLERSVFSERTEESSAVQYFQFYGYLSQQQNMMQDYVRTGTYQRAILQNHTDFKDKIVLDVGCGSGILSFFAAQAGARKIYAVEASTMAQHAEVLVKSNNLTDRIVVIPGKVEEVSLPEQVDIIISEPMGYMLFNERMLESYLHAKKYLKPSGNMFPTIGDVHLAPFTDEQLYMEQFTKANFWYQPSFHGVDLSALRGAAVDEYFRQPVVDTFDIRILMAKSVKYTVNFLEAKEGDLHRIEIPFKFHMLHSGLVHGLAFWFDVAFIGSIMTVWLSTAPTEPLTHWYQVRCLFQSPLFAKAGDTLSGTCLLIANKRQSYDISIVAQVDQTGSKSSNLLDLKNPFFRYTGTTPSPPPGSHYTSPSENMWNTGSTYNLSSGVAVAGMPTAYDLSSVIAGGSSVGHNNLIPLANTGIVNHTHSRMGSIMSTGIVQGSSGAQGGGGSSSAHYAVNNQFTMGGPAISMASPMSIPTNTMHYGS

[3] = molecular target: T3, HK1 (Homo sapiens, UniProt P19367); details: HK1 K510, KR mutant; 10 μM probe, 1 h
T3 construct: Flag; expressed in transfected cells; host or cells: HEK 293T
T3 sequence (P19367 1-917): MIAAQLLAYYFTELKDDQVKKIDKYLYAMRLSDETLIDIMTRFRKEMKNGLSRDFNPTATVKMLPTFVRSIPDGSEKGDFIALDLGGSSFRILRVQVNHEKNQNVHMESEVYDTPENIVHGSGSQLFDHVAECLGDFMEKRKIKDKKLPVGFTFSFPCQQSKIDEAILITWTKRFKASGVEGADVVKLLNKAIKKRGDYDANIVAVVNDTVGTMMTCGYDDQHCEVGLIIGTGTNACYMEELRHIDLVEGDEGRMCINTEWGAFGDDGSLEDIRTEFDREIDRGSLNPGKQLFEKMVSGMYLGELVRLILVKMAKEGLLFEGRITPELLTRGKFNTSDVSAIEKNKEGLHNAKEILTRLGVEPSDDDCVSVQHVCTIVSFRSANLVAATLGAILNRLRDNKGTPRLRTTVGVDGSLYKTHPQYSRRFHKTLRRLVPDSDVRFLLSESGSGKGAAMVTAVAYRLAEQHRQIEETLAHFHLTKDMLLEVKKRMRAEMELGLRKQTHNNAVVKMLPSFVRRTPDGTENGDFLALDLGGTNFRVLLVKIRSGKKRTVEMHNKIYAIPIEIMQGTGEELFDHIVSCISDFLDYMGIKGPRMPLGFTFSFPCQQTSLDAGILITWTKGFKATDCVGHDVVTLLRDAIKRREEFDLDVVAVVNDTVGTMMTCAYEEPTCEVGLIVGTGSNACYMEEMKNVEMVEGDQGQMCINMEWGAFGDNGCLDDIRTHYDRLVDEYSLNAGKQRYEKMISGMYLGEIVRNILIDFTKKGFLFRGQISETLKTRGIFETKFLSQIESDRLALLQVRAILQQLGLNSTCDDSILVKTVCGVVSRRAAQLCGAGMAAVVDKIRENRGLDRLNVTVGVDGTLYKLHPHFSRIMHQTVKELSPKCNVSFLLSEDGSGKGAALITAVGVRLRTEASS

SMILES | labeling of WT vs mutant protein by probe [1] | labeling of WT vs mutant protein by probe [2] | labeling of WT vs mutant protein by probe [3]
C#CCCC(=O)Oc1c(F)c(F)c(S(=O)(=O)[O-])c(F)c1F.[Na+] [probe 1, reference compound] | PD (the WT labeled more than the mutant (>2x difference quantified)) | HD (the WT labeled more than the mutant (>4x difference quantified)) | PD (the WT labeled more than the mutant (>2x difference quantified))
C#CCCC(=O)Oc1c(F)c(F)c(F)c(F)c1F [probe 6, Pentafluorophenyl 4-pentynoate] |  | ND (the WT did not label more than the mutant (<2x difference quantified)) | HD (the WT labeled more than the mutant (>4x difference quantified))
C#Cc1ccc(C(=O)Oc2ccccc2[N+](=O)[O-])cc1 [probe 10, 2-Nitrophenyl 4-ethynylbenzoate] | HD (the WT labeled more than the mutant (>4x difference quantified)) |  | 
C#Cc1ccc(C(=O)Oc2c(F)c(F)cc(F)c2F)cc1 [probe 12, 2,3,5,6-Tetrafluorophenyl 4-ethynylbenzoate] | HD (the WT labeled more than the mutant (>4x difference quantified)) | ND (the WT did not label more than the mutant (<2x difference quantified)) | ND (the WT did not label more than the mutant (<2x difference quantified))
C#Cc1ccc(C(=O)Oc2c(F)c(F)c(F)c(F)c2F)cc1 [probe 13, Pentafluorophenyl 4-ethynylbenzoate] | HD (the WT labeled more than the mutant (>4x difference quantified)) | ND (the WT did not label more than the mutant (<2x difference quantified)) | ND (the WT did not label more than the mutant (<2x difference quantified))
Cc1cc(C)n2c1C=C1C=CC(CCC(=O)Oc3c(F)c(F)c(S(=O)(=O)[O-])c(F)c3F)=[N+]1[B-]2(F)F.[Na+] [probe 18, reference compound] | PD (the WT labeled more than the mutant (>2x difference quantified)) | PD (the WT labeled more than the mutant (>2x difference quantified)) | ND (the WT did not label more than the mutant (<2x difference quantified))
